According to patent publication US20230118688A1, “1H-PYRAZOLO[4,3-d]PYRIMIDINE COMPOUNDS AS TOLL-LIKE RECEPTOR 7 (TLR7) AGONISTS” (BRISTOL-MYERS SQUIBB COMPANY, priority 2020, published 2023):
Read-outs that look alike come from different tables or passages of the source.

What was measured:
human TLR7 = molecular target: T1, human TLR7 (Homo sapiens, UniProt Q9NYK1); assay: Human TLR7 agonist activity reporter assay (HEK-Blue TLR7 cells, SEAP reporter); assay type: cell-based; settings: 18 h treatment
T1 construct: host or cells: HEK-Blue TLR7 cells (engineered human embryonic kidney cells)
T1 sequence (Q9NYK1 27-1049): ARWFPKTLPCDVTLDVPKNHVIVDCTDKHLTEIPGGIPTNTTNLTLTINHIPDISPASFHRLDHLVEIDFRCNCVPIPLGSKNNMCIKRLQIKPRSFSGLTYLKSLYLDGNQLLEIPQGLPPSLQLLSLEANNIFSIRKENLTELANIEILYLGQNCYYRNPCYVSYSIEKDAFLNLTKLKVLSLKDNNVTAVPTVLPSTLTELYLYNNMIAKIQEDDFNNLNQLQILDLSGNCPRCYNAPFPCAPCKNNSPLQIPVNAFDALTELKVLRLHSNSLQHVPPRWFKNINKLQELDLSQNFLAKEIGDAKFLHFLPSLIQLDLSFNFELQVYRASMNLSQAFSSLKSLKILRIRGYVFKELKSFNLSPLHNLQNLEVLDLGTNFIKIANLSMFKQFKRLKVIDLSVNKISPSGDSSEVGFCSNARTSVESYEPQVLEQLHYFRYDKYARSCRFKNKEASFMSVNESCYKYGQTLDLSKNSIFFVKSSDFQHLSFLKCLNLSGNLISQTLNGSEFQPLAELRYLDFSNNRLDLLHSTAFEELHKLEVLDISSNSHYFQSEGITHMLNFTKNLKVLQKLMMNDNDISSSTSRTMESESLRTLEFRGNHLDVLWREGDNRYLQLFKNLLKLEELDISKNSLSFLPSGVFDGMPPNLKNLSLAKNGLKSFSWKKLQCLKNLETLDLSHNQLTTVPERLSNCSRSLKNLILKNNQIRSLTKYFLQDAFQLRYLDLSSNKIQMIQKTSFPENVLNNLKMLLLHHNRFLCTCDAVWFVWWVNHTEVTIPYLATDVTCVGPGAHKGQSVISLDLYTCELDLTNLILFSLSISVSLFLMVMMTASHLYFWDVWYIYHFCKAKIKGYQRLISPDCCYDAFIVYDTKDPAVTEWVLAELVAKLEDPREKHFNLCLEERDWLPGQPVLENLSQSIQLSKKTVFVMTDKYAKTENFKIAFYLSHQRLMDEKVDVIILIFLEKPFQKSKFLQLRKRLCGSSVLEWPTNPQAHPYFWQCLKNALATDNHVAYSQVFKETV
How it was run: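 HEK-Blue TLR7 cells (15,000/well) treated with compound for 18 h at 37 °C, 5% CO2. Secreted SEAP measured with Quanti-Blue, 30 min, OD 620 nm. EC50 taken as concentration giving half-maximal response between baseline and maximum.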

CD69 = assay: Induction of CD69 in human whole blood; assay type: cell-based; settings: 17 h, CD69 surface staining, 100% set to 1 uM resiquimod
Method: The induction of Type I interferon (IFN) MX-1 genes and the B-cell activation marker CD69 are downstream events that occur upon activation of the TLR7 pathway. The following is a human whole blood assay that measures their induction in response to a TLR7 agonist.
Heparinized human whole blood was harvested from human subjects and treated with test TLR7 agonist compounds at 1 mM. The blood was diluted with RPMI 1640 media and Echo was used to predot 10 nL per well giving a final concentration of 1 uM (10 nL in 10 uL of blood). After mixing on a shaker for 30 sec, the plates were covered and placed in a 37° C. chamber for o/n=17 hrs. Fixing/lysis buffer was prepared (5×->1× in H2O, warm at 37° C.; Cat #BD 558049) and kept the perm buffer (on ice) for later use.
For surface markers staining (CD69): prepared surface Abs: 0.045 ul hCD14-FITC (ThermoFisher Cat #MHCD1401)+0.6 ul hCD19-ef450 (ThermoFisher Cat #48-0198-42)+1.5 ul hCD69-PE (cat #BD555531)+0.855 ul FACS buffer. Added 3 ul/well, spin1000 rpm for 1 min and mixed on shaker for 30 sec, put on ice for 30 mins. Stop stimulation after 30 minutes with 70 uL of prewarmed 1× fix/lysis buffer and use Feliex mate to resuspend (15 times, change tips for each plate) and incubate at 37C for 10 minutes.
Centrifuge at 2000 rpm for 5 minutes aspirate with HCS plate washer, mix on shaker for 30 sec and then wash with 70 uL in dPBS and pelleted 2×s (2000 rpm for 5 min) and 50 ul wash in FACS buffer pelleted 1×s(2000 rpm for 5 min). Mix on shaker for 30 sec. For Intracellular markers staining (MX-1): Add 50 ul of BD Perm buffer III and mix on shaker for 30 sec. Incubate on ice for 30 minutes (in the dark). Wash with 50 uL of FACS buffer 2× (spin @2300 rpm×5 min after perm) followed by mixing on shaker for 30 sec. Resuspended in 20 ul of FACS buffer containing MX1 antibody ( ) (4812)-Alexa 647: Novus Biologicals #NBP2-43704AF647) 20 ul FACS bf+0.8 ul hlgG+0.04 ul MX-1. Spin 1000 rpm for 1 min, mix on shaker for 30se and the samples were incubated at RT in the dark for 45 minutes followed by washing 2×FACS buffer (spin @2300 rpm×5 min after perm). Resuspend 20 ul (35 uL total per well) of FACS buffer and cover with foil and place in 4° C. to read the following day. Plates were read on iQuePlus. The results were loaded into toolset and IC50 curves are generated in curve master. The y-axis 100% is set to 1 uM of resiquimod.

[1] = average where assay repeated, Table A1, read-out: hTLR7 Agonism EC50
[2] = average where assay repeated, Table A1, read-out: hWB CD69 EC50
[3] = Table A2, read-out: hTLR7 Agonism EC50
[4] = Table A2, read-out: hWB CD69 EC50

| Compound | EC50 (human TLR7; [1]) [nM] | EC50 (CD69; [2]) [nM] | EC50 (human TLR7; [3]) [nM] | EC50 (CD69; [4]) [nM] |
| --- | --- | --- | --- | --- |
| CCC[C@@H](CCO)Nc1nc(N)nc2cnn(Cc3cc(C(=O)N[C@@H]4CCN(C)C4)ccc3OC)c12 [Compound 154, 3-[(5-amino-7-{[(3S)-1-hydroxyhexan-3-yl]amino}-1H-pyrazolo[4,3-d]pyrimidin-1-yl)methyl]-4-methoxy-N-[(3R)-1-methylpyrrolidin-3-yl] benzamide] | 280 | 144 |  |  |
| CCC[C@@H](CCO)Nc1nc(N)nc2cnn(Cc3cc(CN4CCN(CCO)CC4)ccc3OC)c12 [Compound 156, (3S)-3-({5-amino-1-[(5-{[4-(2-hydroxyethyl)piperazin-1-yl]methyl}-2-methoxy-phenyl)methyl]-1H-pyrazolo[4,3-d]pyrimidin-7-yl}amino)hexan-1-ol] | 56.9 | 73.6 |  |  |
| CCC[C@@H](CCO)Nc1nc(N)nc2cnn(Cc3cc(CN4CCN(C)CC4)ccc3OC)c12 [Compound 157, (S)-3-((5-amino-1-(2-methoxy-5-((4-methylpiperazin-1-yl)methyl)benzyl)-1H-pyrazolo[4,3-d]pyrimidin-7-yl)amino)hexan-1-ol] | 22.5 | 13.2 |  |  |
| CCC[C@@H](CCO)Nc1nc(N)nc2cnn(Cc3cc(CN4CC5(CN(C)C5)C4)ccc3OC)c12 [Compound 158, (3S)-3-[(5-amino-1-{[2-methoxy-5-({6-methyl-2,6-diazaspiro[3.3]heptan-2-yl}methyl)phenyl]methyl}-1H-pyrazolo[4,3-d]pyrimidin-7-yl)amino]-hexan-1-ol] | 604 | 199 |  |  |
| CCC[C@@H](CCO)Nc1nc(N)nc2c(C)nn(Cc3cc(CN4CCN(CCO)CC4)ccc3OC)c12 [Compound 159, (3S)-3-({5-amino-1-[(5-{[4-(2-hydroxyethyl)piperazin-1-yl]methyl}-2-methoxyphenyl)methyl]-3-methyl-1H-pyrazolo[4,3-d]pyrimidin-7-yl}amino)hexan-1-ol] | 98.6 | 37.1 |  |  |
| CCC[C@@H](CCO)Nc1nc(N)nc2c(C)nn(Cc3cc(CNC4CCOCC4)ccc3OC)c12 [Compound 162, (3S)-3-({5-amino-1-[(2-methoxy-5-{[(oxan-4-yl)amino]methyl}phenyl)methyl]-3-methyl-1H-pyrazolo[4,3-d]pyrimidin-7-yl}amino)-hexan-1-ol] | 294 | 90.3 |  |  |
| CC[C@@H](CCO)Nc1nc(N)nc2cnn(Cc3cc(CN4CCN(C)CC4)ccc3OC)c12 [Compound 163, (3S)-3-{[5-amino-1-({2-methoxy-5-[(4-methylpiperazin-1-yl)methyl]phenyl}methyl)-1H-pyrazolo[43-d]pyrimidin-7-yl]amino}pentan-l-ol] | 267 | 119 |  |  |
| CCC[C@@H](CCO)Nc1nc(N)nc2c(C)nn(Cc3cc(CN4CCN(C)CC4)ccc3OC)c12 [Compound 164, (3S)-3-{[5-amino-1-({2-methoxy-5-[(4-methylpiperazin-1-yl)methyl]phenyl}methyl)-3-methyl-1H-pyrazolo[4,3-d]pyrimidin-7-yl]amino}hexan-1-ol] | 48.5 | 21.7 |  |  |
| CCC[C@@H](CCO)Nc1nc(N)nc2cnn(Cc3cc(CN4CCNCC4)c(F)cc3OC)c12 [Compound 167, (3S)-3-{[5-amino-1-({4-fluoro-2-methoxy-5-[(piperazin-1-yl)methyl]phenyl}methyl)-1H-pyrazolo[4,3-d]pyrimidin-7-yl]amino}hexan-1-ol] |  |  | 189 | 145 |

Now from value to compound:

| EC50 (human TLR7; [1]) [nM] | EC50 (CD69; [2]) [nM] | EC50 (human TLR7; [3]) [nM] | EC50 (CD69; [4]) [nM] | Compound |
| --- | --- | --- | --- | --- |
| 150 | 129 |  |  | CCC[C@@H](CCO)Nc1nc(N)nc2cnn(Cc3cc(CN4CCNCC4)ccc3OC)c12 [Compound 155, (3S)-3-{[5-amino-1-({2-methoxy-5-[(piperazin-1-yl)-methyl]phenyl}methyl)-1H-pyrazolo[4,3-d]pyrimidin-7-yl]amino}hexan-1-ol] |
| 740 | 151 |  |  | COc1ccc(CN2CC(OC)C2)cc1Cn1ncc2nc(N)nc(NCC[C@H](O)C3CC3)c21 [Compound 160, (1S)-3-{[5-amino-1-({2-methoxy-5-[(3-methoxy-azetidin-1-yl)methyl]phenyl}-methyl)-1H-pyrazolo[4,3-d]pyrimidin-7-yl]amino}-1-cyclopropylpropan-1-ol] |
| 340 | 132 |  |  | CCC[C@@H](CCO)Nc1nc(N)nc2c(C)nn(Cc3cc(CN4CCNCC4)ccc3OC)c12 [Compound 161, (3S)-3-{[5-amino-1-({2-methoxy-5-[(piperazin-1-yl)methyl]phenyl}methyl)-3-methyl-1H-pyrazolo[4,3-d]pyrimidin-7-yl]amino}hexan-1-ol] |
|  |  | 89.9 | 27.3 | CCC[C@@H](CCO)Nc1nc(N)nc2cnn(Cc3cc(CNC4CCOCC4)c(F)cc3OC)c12 [Compound 165, (3S)-3-({5-amino-1-[(4-fluoro-2-methoxy-5-{[(oxan-4-yl)amino]-methyl}phenyl)methyl]-1H-pyrazolo[4,3-d]pyrimidin-7-yl}amino)hexan-1-ol] |
|  |  | 116 | 34.2 | CCC[C@@H](CCO)Nc1nc(N)nc2cnn(Cc3cc(CN4CC(O)C4)c(F)cc3OC)c12 [Compound 166, 1-({5-[(5-amino-7-{[(3S)-1-hydroxyhexan-3-yl]amino}-1H-pyrazolo[4,3-d]pyrimidin-1-yl)methyl]-2-fluoro-4-methoxyphenyl}-methyl)azetidin-3-ol] |
|  |  | 62.8 | 39.2 | CCC[C@@H](CCO)Nc1nc(N)nc2cnn(Cc3cc(CN4CCN(CCO)CC4)c(F)cc3OC)c12 [Compound 168, (3S)-3-({5-amino-1-[(4-fluoro-5-{[4-(2-hydroxyethyl)piperazin-1-yl]methyl}-2-methoxyphenyl)-methyl]-1H-pyrazolo[4,3-d]pyrimidin-7-yl}amino)hexan-1-ol] |
|  |  | 43.5 | 6.2 | CCC[C@@H](CCO)Nc1nc(N)nc2cnn(Cc3cc(CNC)c(F)cc3OC)c12 [Compound 169, (3S)-3-{[5-amino-1-({4-fluoro-2-methoxy-5-[(methylamino)-methyl]phenyl}methyl)-1H-pyrazolo[4,3-d]pyrimidin-7-yl]amino}hexan-1-ol] |
|  |  | 770 | 170 | CCC[C@@H](CCO)Nc1nc(N)nc2cnn(Cc3cc(CN(C)CCN(C)C)cnc3OC)c12 [Compound 170, (3S)-3-[(5-amino-1-{[5-({[2-(dimethyl-amino)ethyl](methyl)amino}-methyl)-2-methoxypyridin-3-yl]methyl}-1H-pyrazolo[4,3-d]pyrimidin-7-yl)amino]hexan-1-ol] |
